Laboratory results from patent US6750228B1, “Aromatic sulfone hydroxamic acid metalloprotease inhibitor” (priority 1997, dated 2004).
Counter-ions that a name gives are not always drawn. Like-named read-outs stand apart in the source and are kept apart here.

Key:
Test in all cases: biochemical
MMP-13 = molecular target: T1, MMP-13 (Homo sapiens, UniProt P45452); conditions: read-out: MMP-13 IC50
T1 construct: made in house; host or cells: baculovirus / insect cells
Outline: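 APMA- or trypsin-activated enzymes were preincubated with inhibitor for 5 min at room temperature, then the fluorogenic substrate MCA-Pro-Leu-Gly-Leu-Dpa-Ala-Arg-NH2 was added to a final 4 μM.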

MMP-2 = molecular target: T2, MMP-2 (Homo sapiens, UniProt P08253)
T2 construct: made in house; provided by Dr. Gregory Goldberg, Washington University
T2 sequence (P08253 110-660): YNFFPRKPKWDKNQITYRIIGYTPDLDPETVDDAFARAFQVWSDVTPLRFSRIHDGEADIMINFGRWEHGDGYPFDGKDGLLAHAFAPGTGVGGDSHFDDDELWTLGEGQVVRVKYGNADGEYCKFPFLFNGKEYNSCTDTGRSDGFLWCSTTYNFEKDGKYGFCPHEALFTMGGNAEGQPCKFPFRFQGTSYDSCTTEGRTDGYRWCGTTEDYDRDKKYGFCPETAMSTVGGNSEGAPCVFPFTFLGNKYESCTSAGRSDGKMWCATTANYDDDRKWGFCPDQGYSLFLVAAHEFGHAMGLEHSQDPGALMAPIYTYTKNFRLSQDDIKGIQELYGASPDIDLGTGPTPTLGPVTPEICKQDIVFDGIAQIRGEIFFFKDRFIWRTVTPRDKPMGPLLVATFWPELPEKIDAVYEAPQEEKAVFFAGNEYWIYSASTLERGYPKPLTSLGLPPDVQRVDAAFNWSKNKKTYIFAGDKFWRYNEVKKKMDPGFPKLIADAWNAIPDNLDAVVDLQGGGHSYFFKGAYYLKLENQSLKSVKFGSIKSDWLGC
Outline: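 Assay buffer 100 mM Tris-HCl, 100 mM NaCl, 10 mM CaCl2, pH 7.5. Activated MMP + inhibitor, 5 min RT; then methoxycoumarin peptide substrate, 4 μM final. Readout fluorescence; IC50 calculated.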

MMP-1 = molecular target: T3, MMP-1 (Homo sapiens, UniProt P03956); conditions: read-out: MMP-1 IC50
T3 construct: made in house; host or cells: transfected HT-1080 cells (provided by Dr. Harold Welgus, Washington University)
T3 sequence (P03956 100-469): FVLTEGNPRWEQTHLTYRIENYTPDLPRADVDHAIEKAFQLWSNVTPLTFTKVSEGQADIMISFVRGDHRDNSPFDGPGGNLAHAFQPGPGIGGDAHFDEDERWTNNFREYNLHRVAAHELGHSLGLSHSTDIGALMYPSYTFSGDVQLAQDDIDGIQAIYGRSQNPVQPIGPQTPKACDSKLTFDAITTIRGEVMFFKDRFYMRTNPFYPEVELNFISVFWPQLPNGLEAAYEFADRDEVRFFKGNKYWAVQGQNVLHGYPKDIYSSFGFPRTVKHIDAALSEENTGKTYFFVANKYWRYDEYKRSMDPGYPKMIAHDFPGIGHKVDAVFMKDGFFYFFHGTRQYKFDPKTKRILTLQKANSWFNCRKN
Outline: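 Substrate MCA-PLGL-Dpa-AR-NH2 at 4 μM final; pH 7.5 Tris/NaCl/CaCl2 buffer with 0.05% polyethyleneglycol lauryl ether, 1% DMSO, room temperature. MMP-1 was expressed in transfected HT-1080 cells and APMA-activated.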

[1] = recombinant human MMP-13, MCA peptide substrate 4 μM, pH 7.5, room temperature
[2] = recombinant human MMP-2, MCA peptide substrate 4 μM, pH 7.5, room temperature, read-out: MMP-2 IC50
[3] = recombinant human MMP-1, MCA peptide substrate 4 μM, pH 7.5, room temperature

SMILES | IC50 (MMP-13; [1]) [µM] | IC50 (MMP-2; [2]) [nM] | IC50 (MMP-1; [3]) [µM] | IC50 (MMP-13) [µM] | IC50 (MMP-2; MMP-2 IC50 (nM)) [nM] | IC50 (MMP-1) [µM] | IC50 (MMP-2; read-out: MMP-2 IC50) [nM]
O=C(NO)C1(S(=O)(=O)c2ccc(N3CCC(n4cnc5ccccc54)CC3)cc2)CCOCC1 [Example 475] | 0.0271 | 500 | > 10 | – | – | – | –
CC1CCCCN1c1ccc(S(=O)(=O)C2(C(=O)NO)CCOCC2)cc1 (stereo not drawn) [Example 486] | 5.4 | 4000 | > 10 | – | – | – | –
Cc1cc(C)cc(C(=O)C2CCN(c3ccc(S(=O)(=O)C4(C(=O)NO)CCOCC4)cc3)CC2)c1 [Example 730] | 0.037 | 3000 | > 10 | – | – | – | –
O=C(NO)C1(S(=O)(=O)c2ccc(N3CC4CC3CN4c3cccc(F)c3)cc2)CCOCC1 (stereo not drawn) [Example 491] | > 10 | > 10000 | > 10 | – | – | – | –
COc1ccccc1C1CCN(c2ccc(S(=O)(=O)C3(C(=O)NO)CCOCC3)cc2)CC1 [Example 79] | – | – | – | 0.02 | 2000 | > 10 | –
Cc1ccc(COC2CCN(c3ccc(S(=O)(=O)C4(C(=O)NO)CCOCC4)cc3)CC2)cc1 [Example 172] | 0.0038 | 160 | > 10 | – | – | – | –
O=C(c1ccc(C(F)(F)F)c(F)c1)C1CCN(c2ccc(S(=O)(=O)C3(C(=O)NO)CCOCC3)cc2)CC1 [Example 738] | 0.022 | 270 | > 10 | – | – | – | –
COCCN1CCC(C(=O)NO)(S(=O)(=O)c2ccc(N3CCC(C(=O)NCCCc4ccccc4)CC3)cc2)CC1 [Example 237, N-Hydroxy-1-(2-methoxyethyl)-4-[[4-[4-[[(3-phenylpropyl)amino]carbonyl]-1-piperidinyl]-phenyl]sulfonyl]-4-piperidinecarboxamide, Monohydrochloride] | 0.013 | 1900 | > 10 | – | – | – | –
COc1ccc(OC2CCN(c3ccc(S(=O)(=O)C4(C(=O)NO)CCOCC4)cc3)CC2)cc1OC [Example 616] | 0.004 | 3.7 | > 10 | – | – | – | –
O=C(c1ccco1)N1CCC(C(=O)NO)(S(=O)(=O)c2ccc(N3CCC(OCc4ccc(F)cc4C(F)(F)F)CC3)cc2)CC1 [Example 434] | 0.19 | 3700 | > 10 | – | – | – | –
O=C(NO)C1(S(=O)(=O)c2ccc(OC3CCC(OCc4ccccc4Cl)C3)cc2)CCOCC1 (stereo not drawn) [Example 665] | 0.0023 | 29.2 | > 10 | – | – | – | –
CC(C)N1CCC(C(=O)NO)(S(=O)(=O)c2ccc(Oc3ccc(OC(F)(F)F)cc3)cc2)CC1 [Example 453] | 0.0004 | 35 | > 10 | – | – | – | –
CC1CC(C)CN(C(=O)C2CCN(c3ccc(S(=O)(=O)C4(C(=O)NO)CCN(C(=O)CN(C)CCN(C)C)CC4)cc3)CC2)C1 (stereo not drawn) [Example 287] | 0.15 | > 10000 | > 10 | – | – | – | –
O=C(NO)C1(S(=O)(=O)c2ccc(Oc3ccc(OC(F)(F)F)cc3)cc2)CCS(=O)(=O)CC1 [Example 157] | 0.0005 | 0.2 | > 10 | – | – | – | –
O=C(c1ccc(OC(F)(F)F)cc1)N1CCN(c2ccc(S(=O)(=O)C3(C(=O)NO)CCOCC3)cc2)CC1 [Example 595] | 0.27 | 425 | > 10 | – | – | – | –
O=C(NO)C1(S(=O)(=O)c2ccc(N3CCC(OCc4ccccc4)CC3)cc2)CCOCC1 [Example 165] | 0.003 | 48.5 | > 10 | – | – | – | –
CCCCc1ccc(OC2CCN(c3ccc(S(=O)(=O)C4(C(=O)NO)CCOCC4)cc3)CC2)cc1 [Example 642] | 0.0022 | 1.1 | > 10 | – | – | – | –
O=C(c1ccccc1)N1CCN(c2ccc(S(=O)(=O)C3(C(=O)NO)CCOCC3)cc2)CC1 [Example 593] | 0.42 | 650 | > 10 | – | – | – | –
COCCNCC(=O)N1CCC(C(=O)NO)(S(=O)(=O)c2ccc(Oc3ccc(C(F)(F)F)cc3)cc2)CC1 [Example 332] | 0.0021 | 0.4 | > 10 | – | – | – | –

SMILES | IC50 (MMP-13; [1]) [µM] | IC50 (MMP-2; [2]) [nM] | IC50 (MMP-1; [3]) [µM] | IC50 (MMP-13) [µM] | IC50 (MMP-2; MMP-2 IC50 (nM)) [nM] | IC50 (MMP-1) [µM] | IC50 (MMP-2; read-out: MMP-2 IC50) [nM]
O=C(C1CCN(c2ccc(S(=O)(=O)C3(C(=O)NO)CCOCC3)cc2)CC1)N1CCC(CO)CC1 [Example 44] | – | – | – | 0.019 | – | > 10 | 1050
CC1CC(C)CN(C(=O)C2CCN(c3ccc(S(=O)(=O)C4(C(=O)NO)CCN(C(=O)CN5CCC(C(=O)O)CC5)CC4)cc3)CC2)C1 (stereo not drawn) [Example 315] | 0.42 | > 10000 | > 10 | – | – | – | –
O=C(NO)C1(S(=O)(=O)c2ccc(N3CC=C(c4ccccc4C(F)(F)F)CC3)cc2)CCOCC1 [Example 208] | 0.11 | 1000 | > 10 | – | – | – | –
O=C(NO)C1(S(=O)(=O)c2ccc(N3CCC(Nc4ccccc4O)CC3)cc2)CCOCC1 [Example 842] | 0.0055 | 45.4 | > 10 | – | – | – | –
O=C(NCCc1ccccc1)OC1CCN(c2ccc(S(=O)(=O)C3(C(=O)NO)CCOCC3)cc2)CC1 [Example 516] | 0.0148 | 300 | > 10 | – | – | – | –
COc1ccc(S(=O)(=O)N2CCN(c3ccc(S(=O)(=O)C4(C(=O)NO)CCOCC4)cc3)CC2)cc1 [Example 678] | 0.005 | 50 | > 10 | – | – | – | –
COCCN1CCC(C(=O)NO)(S(=O)(=O)c2ccc(N3CCC(C(=O)NCc4ccccc4)CC3)cc2)CC1 [Example 247, N-Hydroxy-1-(2-methoxyethyl)-4-[[4-[4-[[(phenylmethyl)amino]carbonyl]-1-piperidinyl]phenyl]-sulfonyl]-4-piperidinecarboxamide, Monohydrochloride] | 0.0345 | 1600 | > 10 | – | – | – | –
O=C(c1ccc(F)cc1)C1CCN(c2ccc(S(=O)(=O)C3(C(=O)NO)CCOCC3)cc2)CC1 [Example 654] | 0.0032 | 35 | > 10 | – | – | – | –
O=C(NO)C1(S(=O)(=O)c2ccc(N3CCN(c4ccc(OC(F)(F)F)cc4)CC3)cc2)CCOCC1 [Example 695] | 0.002 | 22.7 | > 10 | – | – | – | –
CC1CC(C)CN(C(=O)C2CCN(c3ccc(S(=O)(=O)C4(C(=O)NO)CCN(C(=O)CNCCOCCO)CC4)cc3)CC2)C1 (stereo not drawn) [Example 301] | 0.09 | > 10000 | > 10 | – | – | – | –
O=C(NO)C1(S(=O)(=O)c2ccc(N3CCCC3)cc2)CCSCC1 [Example 155] | 0.13 | 240 | > 10 | – | – | – | –
CCCN(CC(=O)N1CCC(C(=O)NO)(S(=O)(=O)c2ccc(N3CCC(C(=O)N4CC(C)CC(C)C4)CC3)cc2)CC1)CC1CC1 (stereo not drawn) [Example 292] | 0.1 | > 10000 | > 10 | – | – | – | –
O=C(NO)C1(S(=O)(=O)c2ccc(N3CCC(OCc4ccccc4C(F)(F)F)CC3)cc2)CCOCC1 [Example 174] | 0.0235 | 800 | > 10 | – | – | – | –
O=C(NO)C1(S(=O)(=O)c2ccc(N3CCC(CCOCc4ccc(Cl)c(Cl)c4)CC3)cc2)CCOCC1 [Example 502] | 0.014 | 63 | > 10 | – | – | – | –
O=C(NO)C1(S(=O)(=O)c2ccc(N3CCC(SC4CCCCC4)CC3)cc2)CCOCC1 [Example 634] | 0.0044 | 60.7 | – | – | – | > 10 | –
CC(=O)c1ccc(OC2CCN(c3ccc(S(=O)(=O)C4(C(=O)NO)CCOCC4)cc3)CC2)c(Cl)c1 [Example 471] | 2.4 | > 10000 | > 10 | – | – | – | –
O=C(NO)C1(S(=O)(=O)c2ccc(N3CCC(Oc4ccc([N+](=O)[O-])cc4)CC3)cc2)CCOCC1 [Example 546] | 0.0027 | 18.6 | > 10 | – | – | – | –
O=C(c1ccco1)N1CCC(C(=O)NO)(S(=O)(=O)c2ccc(N3CCC(OCc4ccc(F)c(C(F)(F)F)c4)CC3)cc2)CC1 [Example 433] | 0.45 | 3500 | > 10 | – | – | – | –
COc1ccc(C(=O)C2CCN(c3ccc(S(=O)(=O)C4(C(=O)NO)CCN(C(=O)OCc5ccccc5)CC4)cc3)CC2)cc1 [Example 435] | 0.0059 | 1500 | > 10 | – | – | – | –
